Q: Which melting point does the source give for `CC(C)OC(=O)CCc1ccc(-n2ccn(-c3ccc(C(=N)N)cc3)c2=O)cc1` here?
A: Its melting point is greater than 250 °C.

Q: For `O=P(OC1=Nc2ccc(Cl)cc2C(c2ccccc2Cl)=NC1)(N1CCOCC1)N1CCOCC1`, which melting point is on record?
A: Its melting point is 185 to 187 °C.

Q: With `O=C1c2ccccc2C=C(Cl)Cc2ccccc21` as the molecule, how does the melting point read?
A: The melting point was 109 to 110 °C.

Q: For `COc1cc2c(c(C)c1C)C(=O)CC2c1c[nH]cn1` (centres undefined), which melting point is on record?
A: Its melting point is 258 to 261 °C.

Q: With `CCOC(=O)c1ncn(-c2nn(C)cc2Cl)c1S(N)(=O)=O` as the molecule, how does the melting point read?
A: Its melting point is 167 to 168 °C.

Q: Which melting point does the source give for `O=C(Nc1ccc(F)cc1)c1ccccc1` here?
A: Its melting point is 167 to 168 °C.

Q: With `CC(C)N1NC(c2ccc(F)cc2)=c2cc(Cl)ccc2=CS1(=O)=O` as the molecule, how does the melting point read?
A: Its melting point is 147 to 151 °C.

Q: Which melting point does the source give for `CC(C)(C)c1cc(CCc2ccccc2NC(=O)NCC(c2ccccc2)c2ccccc2)cc(C(C)(C)C)c1O` here?
A: The melting point was 179 °C.

Q: Which melting point does the source give for `CCCCCCCCCCCCCCCCCCS(=O)c1cc2ccccc2c(N)c1O` (centres undefined) here?
A: The melting point was 95 to 97 °C.

Q: Which melting point does the source give for `O=C(O)C1=Cc2cc(I)cc(I)c2OC1C(F)(F)F` (centres undefined) here?
A: The melting point was 243 to 244 °C.

Q: With `CC1(C)CCOc2c(CC#Cc3ccc(C(=O)O)c(O)c3)cccc21` as the molecule, how does the melting point read?
A: The melting point was 182 to 183 °C.

Q: For `Cc1c(C)c2c(c(C)c1O)CCC(COc1ccc(CC3SC(=O)NC3=O)cc1)O2` (centres undefined), which melting point is on record?
A: The melting point was 158 to 159 °C.

Q: With `CCOc1cc2c(c3c1OC(C)(C)C3)C(c1ccccc1)=NC(C)(CN1C(=O)c3ccccc3C1=O)C2` (centres undefined) as the molecule, how does the melting point read?
A: Its melting point is 187 to 189 °C.

Q: With `O=C(C=Cc1ccc(O)cc1)c1c(O)cccc1O` as the molecule, how does the melting point read?
A: Its melting point is 190 to 192 °C.

Q: With `CC(C)(C)NC(=O)c1nn(-c2ccc(Br)cc2)c2c1C1CCC2CC1` as the molecule, how does the melting point read?
A: Its melting point is 191 to 193 °C.

Q: Which melting point does the source give for `CCOCCCC(NC=O)C1(c2ccc(Cl)cc2)CCC1` (centres undefined) here?
A: The melting point was 58 to 59 °C.

Q: Which melting point does the source give for `C=CCCCCCCCCOC(=O)C=Cc1ccccc1O` here?
A: The melting point was 58 °C.

Q: Which melting point does the source give for `O=C1C(=O)c2ccc(-c3ccncc3)cc2C2=C1SCC1(CCNCC1)O2` here?
A: The melting point was 223 to 228 °C.

Q: Which melting point does the source give for `Nc1ccccc1C(=O)c1ccc(F)cc1` here?
A: The melting point was 125 to 127 °C.

Q: Which melting point does the source give for `OC1CSC(Oc2ccc(-c3ccnc(Cl)c3)nc2)C(O)C1O` (centres undefined) here?
A: Its melting point is 179 °C.

Q: Which melting point does the source give for `CC(C)(C)OC(=O)N1CCc2cc(OCc3ccccc3)c(OCc3ccccc3)cc2C1Cc1ccc(NC(=O)c2ccccc2)c(I)c1` (centres undefined) here?
A: The melting point was 151 to 153 °C.

Q: For `COc1cc(N)cc(C#N)c1`, which melting point is on record?
A: Its melting point is 81 to 85 °C.

Q: For `CC1CC2=CC(=O)CCC2C2C(F)CC3(C)C(O)CCC3C12` (centres undefined), which melting point is on record?
A: The melting point was 127 °C.

Q: Which melting point does the source give for `CC(=O)NC(CC(=O)c1ccccc1)OC(C)=O` (centres undefined) here?
A: Its melting point is 82 to 83 °C.

Q: With `N#CCCCCCC(=O)c1ccc(Cl)cc1` as the molecule, how does the melting point read?
A: Its melting point is 44 to 46 °C.

Q: With `O=C(O)c1cc2[nH]c3c(O)cccc3c(=O)n2n1` as the molecule, how does the melting point read?
A: Its melting point is 326 to 330 °C.

Q: For `O=C(C=Cc1ccccn1)Nc1nnn[nH]1`, which melting point is on record?
A: Its melting point is 275 to 276 °C.

Q: Which melting point does the source give for `CC(=O)Nc1ccc(C)c2c1C(=O)CCC2` here?
A: Its melting point is 92 to 94 °C.

Q: Which melting point does the source give for `CCOC(=O)C1CCn2c(cc3cc(OC)ccc32)C1` (centres undefined) here?
A: Its melting point is 104 to 105 °C.

Q: With `COc1cc2cnn(CCCCl)c(=O)c2cc1OC` as the molecule, how does the melting point read?
A: Its melting point is 185 to 187 °C.

Q: With `CCCn1cc(-c2c(-c3ccccc3)nn3ccncc23)ccc1=O` as the molecule, how does the melting point read?
A: The melting point was 165 to 166 °C.

Q: For `CC1(C)C(C=C(Br)Br)C1C(=O)O` (centres undefined), which melting point is on record?
A: The melting point was 116 to 117 °C.

Q: For `CCOC(=O)COc1ccc(C(=O)Nc2ccccc2S(=O)c2ccccc2C#N)cc1` (centres undefined), which melting point is on record?
A: The melting point was 128 to 130 °C.

Q: For `CNC(=O)c1cccc(C=NNc2ccc(C)cc2)c1O`, which melting point is on record?
A: Its melting point is 108 to 125 °C.

Q: For `COc1ccccc1CN[C@H]1CCCN[C@H]1C(C)(C)C` (relative stereo), which melting point is on record?
A: Its melting point is greater than 251 °C.

Q: Which melting point does the source give for `CCCCc1nn(-c2cc(NC(=O)CC)ccc2C(F)(F)F)c(=O)n1Cc1ccc(-c2ccccc2S(=O)(=O)NC(=O)c2ccccc2Cl)cc1` here?
A: Its melting point is 102 to 105 °C.

Q: Which melting point does the source give for `O=C(O)c1ccc(NC(=O)C(CC2CCCC2)c2ccc(-c3cccc4ccccc34)cc2)nc1` (centres undefined) here?
A: Its melting point is 155 to 158 °C.

Q: With `Cc1cc([N+](=O)[O-])c(C)c(Cl)c1Oc1ccc(Cl)c2ccccc12` as the molecule, how does the melting point read?
A: The melting point was 135 to 137 °C.

Q: For `CCOC(=O)c1cc(=O)n(CCC(C(=O)NO)N(C)S(=O)(=O)c2ccc(Oc3ccccc3)cc2)c(=O)[nH]1` (centres undefined), which melting point is on record?
A: The melting point was 159 to 160 °C.

Q: With `COc1cc2c(cc1Br)-c1c(-c3cncs3)c3c(n1CC2)C(=O)N(C(C)(C)C)CCOC3` as the molecule, how does the melting point read?
A: Its melting point is 219 to 220 °C.

Q: For `Cc1ccc(CC2CCN(CCS(=O)c3ccc4[nH]c(=O)oc4c3)CC2)cc1` (centres undefined), which melting point is on record?
A: Its melting point is 177 to 179 °C.

Q: Which melting point does the source give for `O=C(O)c1cnc(-c2ccccc2)c2ccccc12` here?
A: The melting point was 215 to 217 °C.

Q: For `CCCCC(C(=O)OCC)c1ccc(N2Cc3ccccc3C2=N)cc1` (centres undefined), which melting point is on record?
A: Its melting point is 140 to 142 °C.

Q: For `COc1ccc(-c2n[nH]c3c2c(=O)n(-c2ccccc2)c2ncccc32)cc1`, which melting point is on record?
A: Its melting point is greater than 300 °C.

Q: Which melting point does the source give for `Cc1c(Cc2ccncc2)nnc(Nc2ccc(Cl)cc2)c1C` here?
A: The melting point was 196 to 199 °C.

Q: With `Cc1cn(C[C@H]2CN(c3ccc(-c4ccc(C#N)nc4)c(F)c3)C(=O)O2)nn1` as the molecule, how does the melting point read?
A: Its melting point is 210 to 212 °C.

Q: For `OC(CSc1nc[nH]n1)(Cn1cncn1)c1ccc(Cl)cc1Cl` (centres undefined), which melting point is on record?
A: Its melting point is 180 to 182 °C.

Q: For `CCOC(=O)c1cnc2sccc2c1O`, which melting point is on record?
A: Its melting point is 137 to 139 °C.

Q: Which melting point does the source give for `Cc1cc2cc(C(=O)O)[nH]c2cc1C` here?
A: The melting point was 266 °C.

Source: a melting point compilation (Tetko et al.; mined from patent text by program, amines drawn as free bases though some values may be those of a salt)
